Measured values published in paper PMC2804074 (Journal of medicinal chemistry, 2010).

Experiments:
[1] = test system: transient global ischemia; conditions: gerbils; i.p. doses ≥ 60 mg/kg; cited from earlier work
[2] = test system: inteleukine-2 (IL-2) release in Jurkat cells; conditions: 10 μM compound; cited from earlier work
p38 [3] = biological target: T1, p38 (Homo sapiens, UniProt Q16539); assay: biochemical
[4] = Microsomal stability, human; assay type: in vitro ADME; conditions: 2 mg/mL human liver microsomes, 1 μM compound
[5] = test system: c-jun phosphorylation in INS-1 β-pancreatic cells; assay type: cell-based, rat; conditions: for decrease in potency (shift) for c-jun phosphorylation cell-based assay compared to JNK1 biochemical IC50: cell-based versus JNK1 biochemical
[6] = Microsomal stability, rat; assay type: in vitro ADME; conditions: 2 mg/mL rat liver microsomes, 1 μM compound
[7] = Microsomal stability, mouse; assay type: in vitro ADME; conditions: 2 mg/mL mouse liver microsomes, 1 μM compound
JNK3 = JNK3 (Homo sapiens, UniProt P53779)
JNK3, sequence (P53779 1-422 isoform P53779-2): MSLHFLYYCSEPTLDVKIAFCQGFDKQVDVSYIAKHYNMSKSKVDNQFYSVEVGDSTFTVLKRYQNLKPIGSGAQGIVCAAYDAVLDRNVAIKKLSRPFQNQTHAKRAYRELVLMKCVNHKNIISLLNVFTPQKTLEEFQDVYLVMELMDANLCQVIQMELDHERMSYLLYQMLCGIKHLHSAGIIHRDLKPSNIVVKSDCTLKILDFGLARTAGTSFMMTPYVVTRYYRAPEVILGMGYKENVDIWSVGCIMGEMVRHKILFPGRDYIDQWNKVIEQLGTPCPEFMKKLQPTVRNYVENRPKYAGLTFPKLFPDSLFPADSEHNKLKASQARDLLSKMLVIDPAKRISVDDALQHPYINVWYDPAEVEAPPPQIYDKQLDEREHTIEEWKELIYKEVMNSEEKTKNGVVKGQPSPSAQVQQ

MLK1-3 = assay: Kinase counterscreen, MLK1-3; assay type: biochemical; conditions: 3 μM
MKK4 = biological target: T2, MKK4 (Homo sapiens, UniProt P45985); assay: Kinase counterscreen, MKK4; assay type: biochemical; conditions: 3 μM
T2 sequence (P45985 1-399): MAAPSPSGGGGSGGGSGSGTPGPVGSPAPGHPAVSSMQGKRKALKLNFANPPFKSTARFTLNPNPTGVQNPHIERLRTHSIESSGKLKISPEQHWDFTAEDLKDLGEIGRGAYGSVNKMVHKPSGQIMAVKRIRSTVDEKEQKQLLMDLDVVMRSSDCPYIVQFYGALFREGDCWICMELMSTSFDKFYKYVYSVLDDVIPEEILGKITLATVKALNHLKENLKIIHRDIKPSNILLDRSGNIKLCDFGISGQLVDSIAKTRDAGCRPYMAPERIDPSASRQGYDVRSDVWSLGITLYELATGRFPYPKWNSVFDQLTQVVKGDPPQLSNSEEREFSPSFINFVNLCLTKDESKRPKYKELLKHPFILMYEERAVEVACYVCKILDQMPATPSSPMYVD

CYP3A4 = CYP3A4 (Homo sapiens, UniProt P08684); assay: P450 inhibition, midazolam hydroxylation; assay type: in vitro ADME; conditions: probe midazolam
CYP3A4, sequence (P08684 whole entry): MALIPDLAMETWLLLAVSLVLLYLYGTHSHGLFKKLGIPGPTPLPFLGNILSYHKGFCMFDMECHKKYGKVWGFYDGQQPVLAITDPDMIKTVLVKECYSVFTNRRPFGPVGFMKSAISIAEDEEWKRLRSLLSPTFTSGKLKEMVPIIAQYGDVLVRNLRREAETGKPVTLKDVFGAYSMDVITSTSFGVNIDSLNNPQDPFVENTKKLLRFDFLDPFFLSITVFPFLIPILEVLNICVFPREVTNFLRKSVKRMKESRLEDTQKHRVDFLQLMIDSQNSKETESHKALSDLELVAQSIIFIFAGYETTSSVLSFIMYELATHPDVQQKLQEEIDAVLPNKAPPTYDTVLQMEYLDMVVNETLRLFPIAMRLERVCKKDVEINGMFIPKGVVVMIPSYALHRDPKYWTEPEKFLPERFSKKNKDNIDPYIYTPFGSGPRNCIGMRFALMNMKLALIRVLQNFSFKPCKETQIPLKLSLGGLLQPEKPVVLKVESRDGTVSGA

panel of 400 kinases = assay: Broad counterscreening against a panel of 400 kinases; assay type: biochemical; conditions: 3 μM; out of 400 kinases
MAPK3K1-4 = assay: Kinase counterscreen, MAPK3K1-4; assay type: biochemical; conditions: 3 μM
ASK-1 = biological target: T3, ASK-1 (Homo sapiens, UniProt Q99683); assay: Kinase counterscreen, ASK-1; assay type: biochemical; conditions: 3 μM
T3 sequence (Q99683 1-1374): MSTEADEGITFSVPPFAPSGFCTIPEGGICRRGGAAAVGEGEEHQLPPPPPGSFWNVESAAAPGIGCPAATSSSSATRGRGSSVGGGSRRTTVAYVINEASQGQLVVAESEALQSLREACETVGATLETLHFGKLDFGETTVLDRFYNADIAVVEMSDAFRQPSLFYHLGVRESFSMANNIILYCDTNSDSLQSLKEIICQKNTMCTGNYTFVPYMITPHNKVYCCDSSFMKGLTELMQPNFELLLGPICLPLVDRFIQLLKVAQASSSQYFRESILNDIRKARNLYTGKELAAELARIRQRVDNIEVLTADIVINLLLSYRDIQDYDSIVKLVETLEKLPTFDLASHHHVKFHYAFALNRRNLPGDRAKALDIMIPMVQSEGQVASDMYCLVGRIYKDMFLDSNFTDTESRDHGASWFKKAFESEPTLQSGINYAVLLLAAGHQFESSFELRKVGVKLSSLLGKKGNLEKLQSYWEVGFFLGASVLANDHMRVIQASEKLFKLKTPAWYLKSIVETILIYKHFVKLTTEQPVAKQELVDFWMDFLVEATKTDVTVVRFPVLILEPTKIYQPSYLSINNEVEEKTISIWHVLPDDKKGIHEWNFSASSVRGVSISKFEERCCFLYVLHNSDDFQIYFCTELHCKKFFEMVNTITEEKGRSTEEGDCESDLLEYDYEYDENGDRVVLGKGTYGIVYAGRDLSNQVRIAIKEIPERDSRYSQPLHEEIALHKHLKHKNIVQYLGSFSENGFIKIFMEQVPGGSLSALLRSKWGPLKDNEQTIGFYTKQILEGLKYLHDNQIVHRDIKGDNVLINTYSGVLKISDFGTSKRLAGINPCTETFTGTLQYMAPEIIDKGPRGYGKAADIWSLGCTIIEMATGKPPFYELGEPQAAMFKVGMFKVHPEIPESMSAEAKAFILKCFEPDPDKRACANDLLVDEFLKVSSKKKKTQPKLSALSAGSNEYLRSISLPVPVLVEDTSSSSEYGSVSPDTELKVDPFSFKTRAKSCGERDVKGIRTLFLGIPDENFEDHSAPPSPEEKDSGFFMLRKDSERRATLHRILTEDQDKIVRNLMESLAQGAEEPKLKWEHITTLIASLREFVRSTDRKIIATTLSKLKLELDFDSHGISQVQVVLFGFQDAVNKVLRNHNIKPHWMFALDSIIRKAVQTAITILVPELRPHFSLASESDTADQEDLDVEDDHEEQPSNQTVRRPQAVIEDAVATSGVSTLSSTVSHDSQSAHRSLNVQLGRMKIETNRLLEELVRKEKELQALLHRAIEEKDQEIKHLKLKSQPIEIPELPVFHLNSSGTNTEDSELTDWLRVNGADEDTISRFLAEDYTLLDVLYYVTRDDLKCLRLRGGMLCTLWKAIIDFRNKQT

CYP2C9 = CYP2C9 (Homo sapiens, UniProt P11712); assay: P450 inhibition, tolbutamide hydroxylation; assay type: in vitro ADME; conditions: probe tolbutamide
CYP2C9, sequence (P11712 whole entry): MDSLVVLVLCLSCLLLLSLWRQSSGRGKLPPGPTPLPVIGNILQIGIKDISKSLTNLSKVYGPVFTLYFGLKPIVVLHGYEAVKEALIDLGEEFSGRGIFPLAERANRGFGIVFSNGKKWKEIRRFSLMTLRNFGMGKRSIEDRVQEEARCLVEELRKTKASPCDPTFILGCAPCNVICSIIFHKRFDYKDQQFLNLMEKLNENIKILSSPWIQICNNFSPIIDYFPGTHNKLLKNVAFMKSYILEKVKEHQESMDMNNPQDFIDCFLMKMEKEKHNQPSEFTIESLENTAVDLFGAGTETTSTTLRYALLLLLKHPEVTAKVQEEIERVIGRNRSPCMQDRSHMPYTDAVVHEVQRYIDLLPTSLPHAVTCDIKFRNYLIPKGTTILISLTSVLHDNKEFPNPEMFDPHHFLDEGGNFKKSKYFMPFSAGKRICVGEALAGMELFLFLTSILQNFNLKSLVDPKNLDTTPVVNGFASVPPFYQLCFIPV

CYP1A2 = biological target: T4, CYP1A2 (Homo sapiens, UniProt P05177); assay: P450 inhibition, phenaceten demethylation; assay type: in vitro ADME; conditions: probe phenaceten
T4 sequence (P05177 1-516): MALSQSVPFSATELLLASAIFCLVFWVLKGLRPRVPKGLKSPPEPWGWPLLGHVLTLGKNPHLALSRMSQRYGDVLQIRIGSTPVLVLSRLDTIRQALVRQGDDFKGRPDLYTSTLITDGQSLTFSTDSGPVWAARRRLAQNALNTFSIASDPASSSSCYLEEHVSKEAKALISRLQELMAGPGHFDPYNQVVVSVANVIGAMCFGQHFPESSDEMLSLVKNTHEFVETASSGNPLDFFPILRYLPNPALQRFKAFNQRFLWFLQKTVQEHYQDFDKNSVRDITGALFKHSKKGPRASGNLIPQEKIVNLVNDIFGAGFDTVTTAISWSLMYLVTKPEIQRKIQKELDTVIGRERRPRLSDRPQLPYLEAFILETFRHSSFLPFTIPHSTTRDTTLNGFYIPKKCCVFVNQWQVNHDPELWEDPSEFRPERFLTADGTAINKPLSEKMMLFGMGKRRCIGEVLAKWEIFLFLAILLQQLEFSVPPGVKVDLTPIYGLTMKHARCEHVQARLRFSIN

MKK7 = biological target: T5, MKK7 (Homo sapiens, UniProt O14733); assay: Kinase counterscreen, MKK7; assay type: biochemical; conditions: 3 μM
T5 sequence (O14733 1-419): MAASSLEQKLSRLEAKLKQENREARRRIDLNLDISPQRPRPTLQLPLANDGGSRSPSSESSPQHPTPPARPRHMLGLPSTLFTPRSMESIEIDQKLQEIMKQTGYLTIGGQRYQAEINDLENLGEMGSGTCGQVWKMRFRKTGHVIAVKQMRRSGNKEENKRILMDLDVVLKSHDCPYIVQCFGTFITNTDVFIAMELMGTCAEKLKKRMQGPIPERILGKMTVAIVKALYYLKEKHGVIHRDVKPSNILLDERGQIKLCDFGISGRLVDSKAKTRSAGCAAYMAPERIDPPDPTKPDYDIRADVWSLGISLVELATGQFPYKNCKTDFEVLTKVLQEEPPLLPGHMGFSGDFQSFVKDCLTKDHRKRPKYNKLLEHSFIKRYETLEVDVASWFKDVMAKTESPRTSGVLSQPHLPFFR

CYP2D6 = CYP2D6 (Homo sapiens, UniProt P10635); assay: P450 inhibition, bufuralol hydroxylation; assay type: in vitro ADME; conditions: probe bufuralol
CYP2D6, sequence (P10635 whole entry): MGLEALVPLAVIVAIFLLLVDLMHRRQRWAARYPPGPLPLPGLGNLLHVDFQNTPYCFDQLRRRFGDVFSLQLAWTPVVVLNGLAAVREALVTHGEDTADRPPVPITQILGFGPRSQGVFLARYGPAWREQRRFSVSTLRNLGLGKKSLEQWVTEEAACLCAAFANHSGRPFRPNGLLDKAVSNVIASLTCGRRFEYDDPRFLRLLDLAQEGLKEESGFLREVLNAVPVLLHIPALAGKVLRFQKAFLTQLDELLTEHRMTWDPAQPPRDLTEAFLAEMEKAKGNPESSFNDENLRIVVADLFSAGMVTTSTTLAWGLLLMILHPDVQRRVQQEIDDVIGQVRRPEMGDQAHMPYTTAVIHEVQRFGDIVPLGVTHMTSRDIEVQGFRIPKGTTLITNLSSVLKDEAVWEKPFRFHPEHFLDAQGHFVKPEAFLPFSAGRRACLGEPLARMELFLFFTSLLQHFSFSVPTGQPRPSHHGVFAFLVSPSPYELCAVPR

JNK1 = JNK1 (Homo sapiens, UniProt P45983); assay: Homogeneous time resolved fluorescence biochemical assay, JNK1
JNK1, sequence (P45983 whole entry): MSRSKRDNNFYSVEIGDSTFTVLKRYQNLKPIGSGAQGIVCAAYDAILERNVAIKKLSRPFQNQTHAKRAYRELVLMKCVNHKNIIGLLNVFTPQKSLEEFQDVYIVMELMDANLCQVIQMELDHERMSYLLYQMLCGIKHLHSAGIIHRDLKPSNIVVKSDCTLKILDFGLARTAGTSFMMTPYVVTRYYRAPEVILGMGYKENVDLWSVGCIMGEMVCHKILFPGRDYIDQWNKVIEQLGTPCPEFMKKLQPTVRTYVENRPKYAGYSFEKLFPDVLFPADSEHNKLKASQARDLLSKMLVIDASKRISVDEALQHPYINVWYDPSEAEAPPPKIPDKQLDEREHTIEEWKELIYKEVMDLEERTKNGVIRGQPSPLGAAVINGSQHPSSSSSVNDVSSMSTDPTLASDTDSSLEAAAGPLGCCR

p38 [8] = biological target: T1, p38; conditions: JNK versus p38

T1 sequence (Q16539 whole entry): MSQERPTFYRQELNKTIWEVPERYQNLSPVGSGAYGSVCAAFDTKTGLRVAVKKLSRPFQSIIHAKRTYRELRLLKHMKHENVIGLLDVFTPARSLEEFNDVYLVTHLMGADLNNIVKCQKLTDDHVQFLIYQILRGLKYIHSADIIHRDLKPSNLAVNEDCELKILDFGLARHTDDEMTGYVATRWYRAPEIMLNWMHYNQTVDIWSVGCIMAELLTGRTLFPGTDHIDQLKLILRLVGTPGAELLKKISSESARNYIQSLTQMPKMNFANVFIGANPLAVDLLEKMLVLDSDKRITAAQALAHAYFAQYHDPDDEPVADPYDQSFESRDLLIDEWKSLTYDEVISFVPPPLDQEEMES

For “1,3-benzothiazol-2-yl (2-[[2-(3-pyridinyl) ethyl] amino]-4 pyrimidinyl) acetonitrile [AS601245]”, the “efficacy in transient global ischemia models” value [1] is given as “efficacious” and the “inhibition of IL-2 release in Jurkat cells” value [2] is given as 90%.
For CS(=O)(=O)Nc1ccc(-c2ccnc(Nc3ccc(-n4ccnn4)cc3)n2)cc1 [Compound 9e], the IC50 (p38 [3]) was > 20 µM, the “Microsomal Stability (half life), human” value [4] was “poor microsomal stability” and the “decrease in potency (shift) for c-jun phosphorylation cell-based assay compared to JNK1 biochemical IC50” value (shortened to “decrease in potency (shift)”) [5] was 13 fold. The “Microsomal Stability (half life), rat” value [6] was “poor microsomal stability”, the “Microsomal Stability (half life), mouse” value [7] was “poor microsomal stability” and the “fold more potent versus JNK3 than compound 9c” value (JNK3; compared to 9c) was 91 fold.
With c1cc(-c2ccnc(Nc3ccc(-n4ccnn4)cc3)n2)cc(N2CCOCC2)c1 [Compound 9c] the IC50 (p38 [3]) was > 20 µM.
For NC(=O)c1ccc(Nc2nccc(-c3ccccc3)n2)cc1 [Compound 9a], the IC50 (p38 [3]) was > 20 µM.
For CN1CCN(c2ncn(-c3ccc(Nc4nccc(-c5cc(F)cc(N6CCOCC6)c5)n4)cc3)n2)CC1 [Compound 9k], the IC50 (p38 [3]) was > 20 µM and the “decrease in potency (shift)” value [5] was “essentially equipotent”.
For Fc1cc(-c2cc[nH]/c(=N/c3ccc(-n4cnc(N5CCOCC5)n4)cc3)n2)cc(N2CCOCC2)c1 [Compound 9l], the “inhibition of MLK1-3” value (MLK1-3) was “no inhibition”, the “inhibition of MKK4” value (MKK4) was “no inhibition” and the IC50 (p38 [3]) was > 20 µM. The inhibition at 15 min, 10 µM (CYP3A4) was 70 to 90%, the “number of kinases showing > 25% inhibition” value (panel of 400 kinases) was 28 and the “number of kinases showing greater than 70% biochemical inhibition” value (panel of 400 kinases) was “eleven”. The “inhibition of MAPK3K1-4” value (MAPK3K1-4) was “no inhibition”, the IC50 ([5]; read-out: cell-based IC50, inhibition of c-jun phosphorylation) was ~0.05 µM and the “inhibition of ASK-1” value (ASK-1) was “no inhibition”. For the same compound, the inhibition at 15 min, 10 µM (CYP2C9) was 70 to 90%, the inhibition at 15 min, 10 µM (CYP1A2) was 70 to 90% and the “inhibition of MKK7” value (MKK7) was “no inhibition”.
In the case of Cc1ncn(-c2ccc(Nc3nccc(-c4cccc(N5CCOCC5)c4)n3)cc2)n1 [Compound 9f], the inhibition at 15 min, 10 µM (CYP2D6) is reported as < 50%, the IC50 (p38 [3]) is reported as > 20 µM and the inhibition at 15 min, 10 µM (CYP3A4) is reported as < 50%. For the same compound, the inhibition at 15 min, 10 µM (CYP2C9) was < 50% and the inhibition at 15 min, 10 µM (CYP1A2) was < 50%.
For Cn1nnc(-c2ccc(Nc3nccc(-c4cc(C#N)cc(N5CCOCC5)c4)n3)cc2)n1 [Compound 9h, 3-(2-(4-(2-methyl-2H-tetrazol-5-yl)phenylamino)pyrimidin-4-yl)-5-morpholinobenzonitrile], the “difference in IC50 for JNK1 compared to 9g” value (JNK1; compared to 9g) was “less than 2 fold”, the inhibition at 15 min, 10 µM (CYP2D6) was ≤ 15% and the IC50 (p38 [3]) was > 20 µM. The inhibition at 15 min, 10 µM (CYP3A4) was ≤ 15%, the “difference in IC50 for c-jun phosphorylation compared to 9g” value ([5]; compared to 9g) was “less than 2 fold” and the inhibition at 15 min, 10 µM (CYP2C9) was ≤ 15%. For the same compound, the inhibition at 15 min, 10 µM (CYP1A2) was ≤ 15%.
In the case of c1cncc(-c2ncn(-c3ccc(Nc4nccc(-c5cccc(N6CCOCC6)c5)n4)cc3)n2)c1 [Compound 9i, 4-(3-Morpholinophenyl)-N-(4-(3-(pyridin-3-yl)-1H-1,2,4-triazol-1-yl)phenyl)pyrimidin-2-amine], the IC50 (p38 [3]) is reported as > 20 µM.
For Cc1ncn(-c2ccc(Nc3nccc(-c4cc(C#N)cc(N5CCOCC5)c4)n3)cc2)n1 [Compound 9g], the “increase in potency for JNK1 inhibition compared to 9f” value (JNK1; compared to 9f) was “approximately 5 fold”, the IC50 (p38 [3]) was > 20 µM and the “selectivity over p38” value (p38 [8]) was “greater than 135 fold”. The “decrease in potency (shift)” value [5] was “essentially equipotent” and the “increase in potency for JNK3 inhibition compared to 9f” value (JNK3; compared to 9f) was “approximately 5 fold”.
With N#Cc1cc(-c2ccnc(Nc3ccc(-n4cnc(-c5ccccn5)n4)cc3)n2)cc(N2CCOCC2)c1 [Compound 9j, 3-Morpholino-5-(2-(4-(3-(pyridin-2-yl)-1H-1,2,4-triazol-1-yl)phenylamino)pyrimidin-4-yl)benzonitrile] the inhibition at 15 min, 10 µM (CYP2D6) was ≤ 33%, the IC50 (p38 [3]) was > 20 µM and the inhibition at 15 min, 10 µM (CYP3A4) was ≤ 33%. For the same compound, the inhibition at 15 min, 10 µM (CYP2C9) was ≤ 33% and the inhibition at 15 min, 10 µM (CYP1A2) was ≤ 33%.
With CS(=O)(=O)Nc1ccc(-c2ccnc(Nc3ccc(S(N)(=O)=O)cc3)n2)cc1 [Compound 9d] the IC50 (p38 [3]) was > 20 µM.
